Results: US20210363213A1, “GLUCAGON-GLP-1-GIP TRIPLE AGONIST COMPOUNDS” (priority 2013, published 2021)
Read-outs that look alike come from different tables or passages of the source. Numbered stars: 1 amine (or outer) side, 2 acyl side, 3 side chain; on linkers, the order of the positions; unused ones are H or OH. Square brackets hold non-standard residues; d marks the D form. Side chains are listed from the residue outwards. Peptide text beside a SMILES is read from it. * marks the point of attachment. C18 diacid = O=C(O)CCCCCCCCCCCCCCCCC(=O)*; γGlu = O=C(O)[C@H](CCC(=O)[*:2])N[*:1]; Stearoyl = CCCCCCCCCCCCCCCCCC(=O)*; AEEA = NCCOCCOCC(=O)O; Aib = CC(C)(N)C(=O)O

Assays:
human GIP R = biological target: T1, human GIP R (Homo sapiens, UniProt P48546); experiment: Human GIP receptor (GIP-R) activity assay, cAMP induction (AlphaScreen) in HEK293 cells; type: cell-based; conditions: average EC50, cAMP in HEK293 cells expressing human GIP R, read-out: GIP R (EC50 in nM)
T1 construct: expressed in transfected cells
T1 sequence (P48546 22-466): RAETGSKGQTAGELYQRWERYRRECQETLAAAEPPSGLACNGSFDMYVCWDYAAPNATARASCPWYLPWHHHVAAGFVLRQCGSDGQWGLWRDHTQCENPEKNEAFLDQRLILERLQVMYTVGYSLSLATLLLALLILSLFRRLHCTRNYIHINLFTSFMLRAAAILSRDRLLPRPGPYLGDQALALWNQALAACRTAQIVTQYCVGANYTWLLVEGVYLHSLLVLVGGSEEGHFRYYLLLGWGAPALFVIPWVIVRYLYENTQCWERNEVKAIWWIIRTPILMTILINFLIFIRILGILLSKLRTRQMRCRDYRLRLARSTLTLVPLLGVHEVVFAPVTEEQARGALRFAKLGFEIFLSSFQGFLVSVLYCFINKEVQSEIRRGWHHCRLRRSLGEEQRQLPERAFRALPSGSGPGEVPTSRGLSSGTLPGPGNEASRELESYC
Protocol: (§1) Briefly, HEK293 cells expressing the human GIP R, GLP-1 R or GCG R (stable cell lines generated through transfection of the cDNA for human GIP R, GLP-1 R or GCG R and selection of stable clones) were seeded at 30,000 cells/well in 96-well microtiter plates coated with 0.01% poly-L-lysine, and grown for 1 day in culture in 200 μl growth medium (DMEM, 10% FCS, Penicillin (100 IU/ml), Streptomycin (100 μg/ml)). On the day of analysis, growth medium was removed and the cells were washed once with 150 μl Tyrode's buffer (Tyrode's Salts (9.6 g/I), 10 mM HEPES, pH 7.4). […] The Assay buffer was removed and cells are lysed in 80 μl Lysis buffer (0.1% w/v BSA, 5 mM HEPES, 0.3% v/v Tween-20) per well. From each well 10 μl of lysed cells were transferred to a 384-well plate and mixed with 15 μl bead-mix (1 Unit/15 μl anti-cAMP Acceptor Beads, 1 Unit/15 μl Donor Beads, and 1 Unit/15 μl Biotinylated cAMP in Assay Buffer). The plates were mixed and incubated in the dark for an hour at room temperature before measuring using an Envision™ plate reader (Perkin-Elmer).
(§2) The resulting cAMP curves were plotted as absolute cAMP concentrations (nM) over log (test compound concentration) and analyzed using the curve fitting program XLfit.
(§3) Parameters calculated to describe both the potency as well as the agonistic activity of each test compound on the receptors were:
(§4) EC50, a concentration resulting in a half-maximal elevation of cAMP levels, reflecting the potency of the test compound.

human GLP-1 R = biological target: T2, human GLP-1 R (Homo sapiens, UniProt P43220); experiment: Human GLP-1 receptor (GLP-1-R) activity assay, cAMP induction (AlphaScreen) in HEK293 cells; type: cell-based; conditions: average EC50, cAMP in HEK293 cells expressing human GLP-1 R, read-out: GLP1 R (EC50 in nM)
T2 construct: expressed in transfected cells
Protocol: as §1, §2, §3, §4

human GCG R = human GCG R (Homo sapiens, UniProt P47871); conditions: read-out: GCG R (EC50 in nM); Table 2; average EC50; cAMP in HEK293 cells expressing human GCG R
Protocol: as §1, §2
Parameters calculated to describe both the potency as well as the agonistic activity of each test compound on the receptors were: […]

[1] = Table 2b (most comprehensive data)

T2 sequence (P43220 24-463): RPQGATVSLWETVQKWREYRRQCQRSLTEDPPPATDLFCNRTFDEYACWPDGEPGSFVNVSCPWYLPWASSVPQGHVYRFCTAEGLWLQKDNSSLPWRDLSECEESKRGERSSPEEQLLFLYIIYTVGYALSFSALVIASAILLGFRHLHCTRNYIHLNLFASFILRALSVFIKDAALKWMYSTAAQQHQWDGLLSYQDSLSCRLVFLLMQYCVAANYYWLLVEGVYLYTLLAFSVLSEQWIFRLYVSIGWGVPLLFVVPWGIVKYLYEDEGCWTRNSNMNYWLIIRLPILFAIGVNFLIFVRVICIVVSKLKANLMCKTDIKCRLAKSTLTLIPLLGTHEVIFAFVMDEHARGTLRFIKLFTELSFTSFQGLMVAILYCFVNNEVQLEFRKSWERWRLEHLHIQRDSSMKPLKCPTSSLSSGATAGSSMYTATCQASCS
Chain of human GCG R (P47871 26-477): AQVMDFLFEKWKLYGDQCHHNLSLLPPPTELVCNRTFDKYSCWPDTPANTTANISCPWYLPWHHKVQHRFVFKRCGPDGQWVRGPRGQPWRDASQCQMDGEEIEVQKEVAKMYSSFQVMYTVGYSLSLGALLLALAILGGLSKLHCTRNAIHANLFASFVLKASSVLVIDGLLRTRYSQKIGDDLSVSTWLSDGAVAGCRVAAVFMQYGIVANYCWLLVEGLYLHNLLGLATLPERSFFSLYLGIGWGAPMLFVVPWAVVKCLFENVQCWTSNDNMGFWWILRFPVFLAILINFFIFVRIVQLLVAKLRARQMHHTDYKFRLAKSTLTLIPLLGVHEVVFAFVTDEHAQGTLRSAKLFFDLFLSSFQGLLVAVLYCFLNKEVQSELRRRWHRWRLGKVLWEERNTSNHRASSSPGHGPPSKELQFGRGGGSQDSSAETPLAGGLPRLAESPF

Row | SMILES | EC50 (human GIP R; Table 2) [nM] | EC50 (human GLP-1 R; Table 2) [nM] | EC50 (human GCG R) [nM] | EC50 (human GIP R; [1]) [nM] | EC50 (human GLP-1 R; [1]) [nM]
1 | CC[C@H](C)[C@H](NC(=O)[C@H](CO)NC(=O)[C@H](Cc1ccc(O)cc1)NC(=O)[C@H](CC(=O)O)NC(=O)[C@H](CO)NC(=O)[C@@H](NC(=O)[C@H](Cc1ccccc1)NC(=O)[C@@H](NC(=O)CNC(=O)[C@H](CCC(N)=O)NC(=O)C(C)(C)NC(=O)[C@@H](N)Cc1ccc(O)cc1)[C@@H](C)O)[C@@H](C)O)C(=O)N[C@@H](Cc1ccc(O)cc1)C(=O)N[C@@H](CC(C)C)C(=O)N[C@@H](CCC(=O)O)C(=O)N[C@@H](CCCCN)C(=O)N[C@@H](CCCCN)C(=O)N[C@@H](C)C(=O)N[C@@H](C)C(=O)N[C@@H](Cc1c[nH]cn1)C(=O)N[C@@H](CC(=O)O)C(=O)N[C@@H](Cc1ccccc1)C(=O)N[C@H](C(=O)N[C@@H](CCC(=O)O)C(=O)N[C@@H](Cc1c[nH]c2ccccc12)C(=O)N[C@@H](CC(C)C)C(=O)N[C@@H](CC(C)C)C(=O)N[C@@H](CO)C(=O)N[C@@H](C)C(N)=O)C(C)C [Compound 14] (HELM PEPTIDE1{Y.[Aib].Q.G.T.F.T.S.D.Y.S.I.Y.L.E.K.K.A.A.H.D.F.V.E.W.L.L.S.A.[am]}$$$$V2.0) | 0.06 | 0.013 | 0.1 | – | –
2 | CC[C@H](C)[C@H](NC(=O)[C@H](CO)NC(=O)[C@H](Cc1ccc(O)cc1)NC(=O)[C@H](CC(=O)O)NC(=O)[C@H](CO)NC(=O)[C@@H](NC(=O)[C@H](Cc1ccccc1)NC(=O)[C@@H](NC(=O)CNC(=O)[C@H](CCC(N)=O)NC(=O)C(C)(C)NC(=O)[C@@H](N)Cc1ccc(O)cc1)[C@@H](C)O)[C@@H](C)O)C(=O)N[C@@H](Cc1ccc(O)cc1)C(=O)N[C@@H](CC(C)C)C(=O)N[C@@H](CCC(=O)O)C(=O)N[C@@H](CCCCN)C(=O)N[C@@H](CCCCN)C(=O)N[C@@H](C)C(=O)N[C@@H](C)C(=O)N[C@@H](Cc1c[nH]cn1)C(=O)N[C@@H](CC(=O)O)C(=O)N[C@@H](Cc1ccccc1)C(=O)N[C@H](C(=O)N[C@@H](CCC(=O)O)C(=O)N[C@@H](Cc1c[nH]c2ccccc12)C(=O)N[C@@H](CC(C)C)C(=O)N[C@@H](CC(C)C)C(=O)N[C@@H](CO)C(=O)N[C@@H](C)C(N)=O)C(C)C [Compound 15] (HELM PEPTIDE1{Y.[Aib].Q.G.T.F.T.S.D.Y.S.I.Y.L.E.K.K.A.A.H.D.F.V.E.W.L.L.S.A.[am]}$$$$V2.0) | 0.025 | 0.016 | 0.058 | – | –
3 | CC[C@H](C)[C@H](NC(=O)[C@H](CO)NC(=O)[C@H](Cc1ccc(O)cc1)NC(=O)[C@H](CC(=O)O)NC(=O)[C@H](CO)NC(=O)[C@@H](NC(=O)[C@H](Cc1ccccc1)NC(=O)[C@@H](NC(=O)CNC(=O)[C@H](CCC(N)=O)NC(=O)C(C)(C)NC(=O)[C@@H](N)Cc1ccc(O)cc1)[C@@H](C)O)[C@@H](C)O)C(=O)N[C@@H](Cc1ccc(O)cc1)C(=O)N[C@@H](CC(C)C)C(=O)N[C@@H](CC(=O)O)C(=O)N[C@@H](CCCCN)C(=O)N[C@@H](CCCCNC(=O)COCCOCCNC(=O)COCCOCCNC(=O)CC[C@H](NC(=O)CCCCCCCCCCCCCCCCC(=O)O)C(=O)O)C(=O)N[C@@H](C)C(=O)N[C@@H](CCC(N)=O)C(=O)N[C@@H](CCCNC(=N)N)C(=O)N[C@@H](C)C(=O)N[C@@H](Cc1ccccc1)C(=O)N[C@H](C(=O)N[C@@H](CCC(=O)O)C(=O)N[C@@H](Cc1c[nH]c2ccccc12)C(=O)N[C@@H](CC(C)C)C(=O)N[C@@H](CC(C)C)C(=O)N[C@@H](C)C(=O)N[C@@H](CCC(N)=O)C(=O)NCC(=O)N1CCC[C@H]1C(=O)N[C@@H](CO)C(=O)N[C@@H](CO)C(=O)NCC(=O)N[C@@H](C)C(=O)N1CCC[C@H]1C(=O)N1CCC[C@H]1C(=O)N1CCC[C@H]1C(=O)N[C@@H](CO)C(N)=O)C(C)C [Compound 33] (H-Y[Aib]QGTFTSDYSIYLDKK([AEEA-AEEA-γGlu-C18 diacid])AQRAFVEWLLAQGPSSGAPPPS-NH2) | – | – | – | 0.0099 | 0.0093
4 | CCCCCCCCCCCCCCCCCC(=O)N[C@@H](CCC(=O)NCCOCCOCC(=O)NCCOCCOCC(=O)NCCCC[C@H](NC(=O)[C@H](CCCCN)NC(=O)[C@H](CC(=O)O)NC(=O)[C@H](CC(C)C)NC(=O)[C@H](Cc1ccc(O)cc1)NC(=O)[C@@H](NC(=O)[C@H](CO)NC(=O)[C@H](Cc1ccc(O)cc1)NC(=O)[C@H](CC(=O)O)NC(=O)[C@H](CO)NC(=O)[C@@H](NC(=O)[C@H](Cc1ccccc1)NC(=O)[C@@H](NC(=O)CNC(=O)[C@H](CCC(N)=O)NC(=O)C(C)(C)NC(=O)[C@@H](N)Cc1ccc(O)cc1)[C@@H](C)O)[C@@H](C)O)[C@@H](C)CC)C(=O)N[C@@H](C)C(=O)N[C@@H](CCC(N)=O)C(=O)N[C@@H](CCCNC(=N)N)C(=O)N[C@@H](C)C(=O)N[C@@H](Cc1ccccc1)C(=O)N[C@H](C(=O)N[C@@H](CCC(=O)O)C(=O)N[C@@H](Cc1c[nH]c2ccccc12)C(=O)N[C@@H](CC(C)C)C(=O)N[C@@H](CC(C)C)C(=O)N[C@@H](C)C(=O)N[C@@H](CCC(N)=O)C(=O)NCC(=O)N1CCC[C@H]1C(=O)N[C@@H](CO)C(=O)N[C@@H](CO)C(=O)NCC(=O)N[C@@H](C)C(=O)N1CCC[C@H]1C(=O)N1CCC[C@H]1C(=O)N1CCC[C@H]1C(=O)N[C@@H](CO)C(N)=O)C(C)C)C(=O)O [Compound 35] (H-Y[Aib]QGTFTSDYSIYLDKK([AEEA-AEEA-γGlu-Stearoyl])AQRAFVEWLLAQGPSSGAPPPS-NH2) | – | – | – | 0.01 | 0.012
